Test results from ChEMBL document CHEMBL1201862, “PubChem BioAssay data set” (2004).
Activity calls are given as the source filed them.

Columns and labels:
Ephrin type-A receptor 4 = Ephrin type-A receptor 4 (Mus musculus, UniProt Q03137); assay: EphA4 ligand-binding antagonists – biochemical, colorimetric, mouse EphA4, primary screen (AID 689); assay type: functional
[1] = molecular target: T1, Sphingosine 1-phosphate receptor 2 (Homo sapiens, UniProt O95136); assay: Dose Response Cell Based Assay for Agonists of the S1P2 Receptor of Purchased Analogues. [Related pubchem assays: 729, 843, 854, 736 ]; assay type: functional
Aspartyl aminopeptidase = molecular target: T2, Aspartyl aminopeptidase (Plasmodium falciparum 3D7, UniProt Q8I2J3); assay: Counterscreen for inhibitors of M1 and M17 aminopeptidases: QFRET-based biochemical high throughput dose response assay for inhibitors of the Plasmodium falciparum M18 Aspartyl Aminopeptidase (PFM18AAP). [Related PubChem assays: 1619 (Screening assay (M17LAP inhibitors).), 1445 (Screening assay (M1AAP inhibitors).)]
T2 sequence (Q8I2J3 whole entry): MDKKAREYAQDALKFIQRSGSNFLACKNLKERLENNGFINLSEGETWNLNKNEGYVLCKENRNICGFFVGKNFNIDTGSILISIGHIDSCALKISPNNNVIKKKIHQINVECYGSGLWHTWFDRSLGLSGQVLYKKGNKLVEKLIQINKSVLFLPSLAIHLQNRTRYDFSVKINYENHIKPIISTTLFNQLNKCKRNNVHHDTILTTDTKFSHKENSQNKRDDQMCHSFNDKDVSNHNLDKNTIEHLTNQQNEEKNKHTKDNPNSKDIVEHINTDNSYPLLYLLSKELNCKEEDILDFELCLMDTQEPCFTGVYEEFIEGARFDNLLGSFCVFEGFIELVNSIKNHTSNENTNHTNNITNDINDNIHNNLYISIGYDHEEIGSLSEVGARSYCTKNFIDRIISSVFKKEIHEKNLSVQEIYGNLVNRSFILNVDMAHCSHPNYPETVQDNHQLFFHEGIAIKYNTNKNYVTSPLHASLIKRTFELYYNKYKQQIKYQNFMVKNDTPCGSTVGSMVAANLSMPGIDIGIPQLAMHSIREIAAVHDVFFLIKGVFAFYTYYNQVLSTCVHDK

Aminopeptidase N = molecular target: T3, Aminopeptidase N (Plasmodium falciparum FcB1/Columbia, UniProt O96935); assay: malaria alanyl aminopeptidase activity blockers – biochemical, fluorogenic H-Leu-NHMec substrate, 1536-well (AID 1445); set-up: species or system Plasmodium falciparum 3D7, 3D7
T3 sequence (O96935 whole entry): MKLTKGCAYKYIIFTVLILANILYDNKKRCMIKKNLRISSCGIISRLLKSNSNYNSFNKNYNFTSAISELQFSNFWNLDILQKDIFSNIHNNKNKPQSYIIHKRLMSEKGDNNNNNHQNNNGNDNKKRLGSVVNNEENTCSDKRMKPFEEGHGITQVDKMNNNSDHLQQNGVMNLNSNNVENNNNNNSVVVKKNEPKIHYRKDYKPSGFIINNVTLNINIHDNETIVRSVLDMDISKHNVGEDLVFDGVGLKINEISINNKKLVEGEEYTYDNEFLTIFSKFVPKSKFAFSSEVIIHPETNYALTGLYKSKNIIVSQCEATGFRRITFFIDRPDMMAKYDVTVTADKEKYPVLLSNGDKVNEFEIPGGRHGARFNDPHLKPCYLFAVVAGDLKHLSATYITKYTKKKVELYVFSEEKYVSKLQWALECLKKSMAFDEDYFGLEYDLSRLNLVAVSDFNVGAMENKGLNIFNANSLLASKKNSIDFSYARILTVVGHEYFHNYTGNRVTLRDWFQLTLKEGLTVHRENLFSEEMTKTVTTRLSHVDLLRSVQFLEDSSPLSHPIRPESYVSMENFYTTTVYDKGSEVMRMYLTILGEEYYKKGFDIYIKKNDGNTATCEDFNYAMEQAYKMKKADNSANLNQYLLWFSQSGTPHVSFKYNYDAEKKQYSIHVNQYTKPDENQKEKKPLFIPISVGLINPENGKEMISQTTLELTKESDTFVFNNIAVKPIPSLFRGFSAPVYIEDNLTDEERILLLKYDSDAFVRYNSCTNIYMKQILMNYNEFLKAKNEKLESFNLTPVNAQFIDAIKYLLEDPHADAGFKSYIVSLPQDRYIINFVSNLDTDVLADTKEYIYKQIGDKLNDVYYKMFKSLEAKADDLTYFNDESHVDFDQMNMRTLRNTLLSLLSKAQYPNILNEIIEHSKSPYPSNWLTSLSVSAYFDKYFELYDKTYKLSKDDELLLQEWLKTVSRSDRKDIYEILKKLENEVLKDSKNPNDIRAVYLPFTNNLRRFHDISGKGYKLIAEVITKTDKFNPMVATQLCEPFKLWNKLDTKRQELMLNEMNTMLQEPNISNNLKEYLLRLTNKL

Procathepsin L = Procathepsin L (Homo sapiens, UniProt P07711); assay: CTSL1 protease inhibition – biochemical, QFRET, 1536-well, counter-screen for M1/M17 aminopeptidase inhibitor project, dose response (AID 2214)
Cytochrome P450 3A4 = Cytochrome P450 3A4 (Homo sapiens, UniProt P08684);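 further: CYP3A4 tested as one member of a cytochrome P450 panel screen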
[2] = molecular target: T1, Sphingosine 1-phosphate receptor 2; assay: Dose Response Cell Based Assay for Antagonists of the S1P2 Receptor. [Related pubchem assays: 856, 736 ]; assay type: functional
Streptococcus = assay: GAS UMAA2166 growth inhibition – luminescence, BacTiterGlo, counter-screen for streptokinase expression inhibitor project, dose response (AID 1915); assay type: functional, organism-based;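 further: potency for reduction of bacterial viability or growth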
Streptokinase A = molecular target: T4, Streptokinase A (Streptococcus pyogenes serotype M1, UniProt P10520); assay: viability-normalized secreted streptokinase activity reduction – plasminogen activation absorbance, OD405, dose response (AID 1914); assay type: functional, Streptococcus pyogenes M1 GAS;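 further: secreted streptokinase activity via plasminogen activation per viability signal from cell pellet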
T4 sequence (P10520 whole entry): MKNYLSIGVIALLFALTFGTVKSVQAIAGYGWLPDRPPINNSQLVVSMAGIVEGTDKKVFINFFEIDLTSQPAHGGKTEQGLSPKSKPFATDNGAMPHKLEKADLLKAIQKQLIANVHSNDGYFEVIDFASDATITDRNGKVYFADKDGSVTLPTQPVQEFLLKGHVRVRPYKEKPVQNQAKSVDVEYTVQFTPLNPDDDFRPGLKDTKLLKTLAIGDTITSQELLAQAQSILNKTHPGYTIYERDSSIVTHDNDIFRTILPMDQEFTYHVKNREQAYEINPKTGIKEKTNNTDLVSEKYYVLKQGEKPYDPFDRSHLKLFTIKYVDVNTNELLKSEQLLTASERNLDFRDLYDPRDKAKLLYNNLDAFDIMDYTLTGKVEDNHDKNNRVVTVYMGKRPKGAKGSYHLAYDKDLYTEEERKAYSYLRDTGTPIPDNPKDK

[3] = test system: Streptococcus sp. 'group A'; assay: Streptococcus pyogenes SK(-)GAS viability under kanamycin – luminescence, BacTiterGlo, confirmation, counter-screen for streptokinase expression inhibitor project, dose response (AID 1900); assay type: functional, organism-based
[4] = molecular target: T5, Voltage-gated N-type calcium channel alpha-1B subunit/Amyloid beta A4 precursor protein-binding family A member 1 (Homo sapiens, UniProt Q00975+Q02410); assay type: protein assay
[5] = molecular target: T6, Mannose-6-phosphate isomerase (Homo sapiens, UniProt P34949); assay: MPI inhibition at elevated mannose 6-phosphate – biochemical, fluorescence intensity, high mannose 6-phosphate, primary screen (AID 1220)
T6 sequence (P34949 whole entry): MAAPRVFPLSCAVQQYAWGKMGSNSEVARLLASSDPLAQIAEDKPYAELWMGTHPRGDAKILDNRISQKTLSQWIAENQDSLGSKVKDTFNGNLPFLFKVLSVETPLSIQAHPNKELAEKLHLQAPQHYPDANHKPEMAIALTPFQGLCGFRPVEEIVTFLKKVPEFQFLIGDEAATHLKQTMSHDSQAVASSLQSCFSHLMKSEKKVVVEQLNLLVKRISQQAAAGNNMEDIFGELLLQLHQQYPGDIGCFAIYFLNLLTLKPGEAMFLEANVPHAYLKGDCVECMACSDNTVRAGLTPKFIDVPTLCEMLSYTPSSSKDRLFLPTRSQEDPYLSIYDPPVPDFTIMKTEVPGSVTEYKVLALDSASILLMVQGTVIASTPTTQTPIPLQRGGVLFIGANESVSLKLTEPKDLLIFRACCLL

[6] = molecular target: T6, Mannose-6-phosphate isomerase; assay: MPI enzyme activity inhibition – biochemical, fluorescence intensity, coupled assay, primary screen (AID 1209)
[7] = molecular target: T5, Voltage-gated N-type calcium channel alpha-1B subunit/Amyloid beta A4 precursor protein-binding family A member 1; assay type: protein assay; remark: listed apart in the source
[8] = M. tuberculosis growth inhibition, HTS (AID 449762); assay type: functional

T1 sequence (O95136 whole entry): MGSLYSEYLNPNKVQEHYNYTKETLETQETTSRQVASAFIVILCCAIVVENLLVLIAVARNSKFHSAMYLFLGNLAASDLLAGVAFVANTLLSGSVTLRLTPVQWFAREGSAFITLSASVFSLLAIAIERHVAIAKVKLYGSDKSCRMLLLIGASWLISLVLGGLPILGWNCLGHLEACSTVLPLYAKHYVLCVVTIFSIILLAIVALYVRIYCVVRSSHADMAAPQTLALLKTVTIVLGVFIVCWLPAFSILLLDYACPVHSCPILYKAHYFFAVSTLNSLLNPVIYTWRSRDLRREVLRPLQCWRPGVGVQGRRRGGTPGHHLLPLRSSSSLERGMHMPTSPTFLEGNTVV
T5 sequence (Q00975 whole entry): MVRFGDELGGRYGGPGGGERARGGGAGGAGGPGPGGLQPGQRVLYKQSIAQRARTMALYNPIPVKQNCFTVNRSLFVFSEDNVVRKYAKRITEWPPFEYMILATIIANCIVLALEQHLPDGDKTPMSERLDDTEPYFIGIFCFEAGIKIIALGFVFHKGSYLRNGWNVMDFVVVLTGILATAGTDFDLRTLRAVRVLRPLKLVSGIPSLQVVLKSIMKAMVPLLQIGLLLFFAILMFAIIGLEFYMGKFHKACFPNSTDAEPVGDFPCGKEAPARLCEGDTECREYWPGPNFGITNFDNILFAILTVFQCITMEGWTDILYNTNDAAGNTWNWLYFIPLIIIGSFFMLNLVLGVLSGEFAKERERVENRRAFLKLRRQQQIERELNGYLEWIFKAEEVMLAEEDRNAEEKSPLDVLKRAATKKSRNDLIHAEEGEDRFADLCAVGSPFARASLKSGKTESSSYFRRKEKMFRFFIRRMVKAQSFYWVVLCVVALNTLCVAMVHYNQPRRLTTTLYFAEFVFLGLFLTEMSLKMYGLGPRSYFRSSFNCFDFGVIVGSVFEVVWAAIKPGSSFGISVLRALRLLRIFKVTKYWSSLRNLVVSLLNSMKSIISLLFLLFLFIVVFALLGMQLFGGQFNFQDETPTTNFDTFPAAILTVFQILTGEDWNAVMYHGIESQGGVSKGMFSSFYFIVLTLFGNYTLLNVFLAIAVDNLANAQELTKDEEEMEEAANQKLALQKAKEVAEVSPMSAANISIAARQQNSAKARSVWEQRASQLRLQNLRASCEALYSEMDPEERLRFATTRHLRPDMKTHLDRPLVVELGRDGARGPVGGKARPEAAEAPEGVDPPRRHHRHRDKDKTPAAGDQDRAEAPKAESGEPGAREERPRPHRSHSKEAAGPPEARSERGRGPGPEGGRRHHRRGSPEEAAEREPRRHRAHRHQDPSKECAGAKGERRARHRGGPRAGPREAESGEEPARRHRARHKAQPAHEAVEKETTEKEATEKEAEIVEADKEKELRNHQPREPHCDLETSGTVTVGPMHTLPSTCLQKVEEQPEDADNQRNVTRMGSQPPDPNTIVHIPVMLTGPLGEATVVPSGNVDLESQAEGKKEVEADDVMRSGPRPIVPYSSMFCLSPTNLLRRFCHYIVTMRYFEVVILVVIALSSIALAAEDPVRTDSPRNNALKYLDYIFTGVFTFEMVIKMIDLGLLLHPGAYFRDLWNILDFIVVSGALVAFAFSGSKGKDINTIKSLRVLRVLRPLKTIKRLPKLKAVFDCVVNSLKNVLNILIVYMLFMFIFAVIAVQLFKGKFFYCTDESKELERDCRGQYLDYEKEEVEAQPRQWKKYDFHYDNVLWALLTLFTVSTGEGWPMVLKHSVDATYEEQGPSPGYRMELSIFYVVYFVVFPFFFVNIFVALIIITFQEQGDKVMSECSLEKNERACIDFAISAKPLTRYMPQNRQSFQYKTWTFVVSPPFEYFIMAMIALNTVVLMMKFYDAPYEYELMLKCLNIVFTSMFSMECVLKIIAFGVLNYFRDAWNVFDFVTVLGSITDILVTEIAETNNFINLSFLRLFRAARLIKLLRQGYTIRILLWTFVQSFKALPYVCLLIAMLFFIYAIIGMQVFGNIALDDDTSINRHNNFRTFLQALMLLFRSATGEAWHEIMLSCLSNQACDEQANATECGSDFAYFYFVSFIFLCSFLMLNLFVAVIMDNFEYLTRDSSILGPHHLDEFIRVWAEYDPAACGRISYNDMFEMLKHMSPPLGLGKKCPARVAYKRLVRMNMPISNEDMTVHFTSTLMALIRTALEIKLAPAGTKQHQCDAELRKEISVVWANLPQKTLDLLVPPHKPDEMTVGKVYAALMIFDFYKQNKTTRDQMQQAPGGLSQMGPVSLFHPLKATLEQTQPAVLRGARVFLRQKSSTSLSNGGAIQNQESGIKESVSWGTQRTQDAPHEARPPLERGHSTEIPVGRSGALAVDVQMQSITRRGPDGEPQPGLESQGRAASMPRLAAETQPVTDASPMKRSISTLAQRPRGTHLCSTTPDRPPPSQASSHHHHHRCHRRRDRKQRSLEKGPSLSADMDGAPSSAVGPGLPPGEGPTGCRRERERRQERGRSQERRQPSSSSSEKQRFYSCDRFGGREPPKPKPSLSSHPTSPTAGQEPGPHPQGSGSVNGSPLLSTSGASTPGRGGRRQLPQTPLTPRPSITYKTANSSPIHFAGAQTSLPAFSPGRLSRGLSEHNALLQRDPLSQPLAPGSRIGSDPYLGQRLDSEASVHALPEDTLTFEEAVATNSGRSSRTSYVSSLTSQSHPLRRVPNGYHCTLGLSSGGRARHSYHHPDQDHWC
T5 sequence (Q02410 whole entry): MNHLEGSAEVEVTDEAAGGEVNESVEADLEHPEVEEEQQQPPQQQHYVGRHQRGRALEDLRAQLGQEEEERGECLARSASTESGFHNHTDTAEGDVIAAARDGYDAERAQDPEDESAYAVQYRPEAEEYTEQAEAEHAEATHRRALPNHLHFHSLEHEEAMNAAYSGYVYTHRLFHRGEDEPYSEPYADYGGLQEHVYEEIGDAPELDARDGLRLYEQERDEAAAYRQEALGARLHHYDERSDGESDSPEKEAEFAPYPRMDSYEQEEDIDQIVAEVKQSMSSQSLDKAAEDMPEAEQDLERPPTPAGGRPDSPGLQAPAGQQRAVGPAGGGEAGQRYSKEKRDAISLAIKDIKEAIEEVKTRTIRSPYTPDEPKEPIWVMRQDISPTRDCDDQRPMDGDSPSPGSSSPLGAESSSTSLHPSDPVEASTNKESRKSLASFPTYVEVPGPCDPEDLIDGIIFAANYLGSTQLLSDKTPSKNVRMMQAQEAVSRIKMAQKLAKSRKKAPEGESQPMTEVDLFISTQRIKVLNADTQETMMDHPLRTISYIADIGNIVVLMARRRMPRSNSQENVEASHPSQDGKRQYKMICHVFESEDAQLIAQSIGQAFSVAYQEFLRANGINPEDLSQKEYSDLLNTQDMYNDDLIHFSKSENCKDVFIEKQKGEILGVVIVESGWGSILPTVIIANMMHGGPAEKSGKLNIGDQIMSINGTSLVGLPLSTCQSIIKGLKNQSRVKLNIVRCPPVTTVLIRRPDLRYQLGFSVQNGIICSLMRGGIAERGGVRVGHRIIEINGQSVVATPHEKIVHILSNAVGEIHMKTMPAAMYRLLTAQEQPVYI
Chain of Ephrin type-A receptor 4 (Q03137 whole entry): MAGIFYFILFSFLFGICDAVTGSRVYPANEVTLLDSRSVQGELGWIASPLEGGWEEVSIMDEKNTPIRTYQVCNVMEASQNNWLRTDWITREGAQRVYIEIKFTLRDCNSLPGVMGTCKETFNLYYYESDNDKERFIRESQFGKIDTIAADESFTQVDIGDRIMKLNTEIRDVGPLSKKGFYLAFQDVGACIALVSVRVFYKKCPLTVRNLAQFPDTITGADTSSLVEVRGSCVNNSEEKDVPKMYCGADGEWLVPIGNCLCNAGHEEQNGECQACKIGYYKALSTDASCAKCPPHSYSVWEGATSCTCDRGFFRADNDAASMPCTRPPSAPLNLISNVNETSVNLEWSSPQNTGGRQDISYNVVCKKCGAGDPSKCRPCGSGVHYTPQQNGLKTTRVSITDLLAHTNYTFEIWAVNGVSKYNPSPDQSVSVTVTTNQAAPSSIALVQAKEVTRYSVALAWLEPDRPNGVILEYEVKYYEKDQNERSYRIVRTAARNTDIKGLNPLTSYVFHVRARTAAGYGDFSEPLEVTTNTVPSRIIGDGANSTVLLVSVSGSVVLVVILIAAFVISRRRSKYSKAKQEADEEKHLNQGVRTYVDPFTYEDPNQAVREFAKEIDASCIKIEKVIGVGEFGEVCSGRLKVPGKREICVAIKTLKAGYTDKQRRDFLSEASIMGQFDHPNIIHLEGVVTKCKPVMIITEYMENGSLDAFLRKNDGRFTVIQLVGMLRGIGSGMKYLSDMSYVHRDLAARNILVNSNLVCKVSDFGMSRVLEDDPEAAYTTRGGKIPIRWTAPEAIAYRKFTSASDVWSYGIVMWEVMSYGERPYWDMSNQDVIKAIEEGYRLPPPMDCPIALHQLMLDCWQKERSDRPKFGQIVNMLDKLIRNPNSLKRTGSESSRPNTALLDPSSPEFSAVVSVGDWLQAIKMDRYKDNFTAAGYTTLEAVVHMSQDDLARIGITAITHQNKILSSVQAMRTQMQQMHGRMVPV
Chain of Procathepsin L (P07711 whole entry): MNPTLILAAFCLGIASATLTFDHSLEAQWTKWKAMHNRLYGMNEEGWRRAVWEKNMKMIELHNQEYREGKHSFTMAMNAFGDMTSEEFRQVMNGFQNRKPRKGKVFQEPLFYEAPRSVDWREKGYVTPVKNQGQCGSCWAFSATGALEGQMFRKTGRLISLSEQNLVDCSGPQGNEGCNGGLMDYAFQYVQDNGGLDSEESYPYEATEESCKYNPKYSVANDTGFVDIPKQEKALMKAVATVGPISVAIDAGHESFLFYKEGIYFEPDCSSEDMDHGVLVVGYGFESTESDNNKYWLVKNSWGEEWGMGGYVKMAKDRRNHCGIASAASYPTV

In the case of `Cc1occc1-c1nnc(SCC(=O)Nc2ccccc2-c2ccccc2)n1C`, the IC50 (Ephrin type-A receptor 4) is reported as > 100 µM (not active).
With `Cc1cc(C(=O)O)c(C)n1Cc1ccccc1` the EC50 [1] was > 30 µM (not active).
With `O=C(NCc1cccc(F)c1)C1CCN(S(=O)(=O)Cc2ccccc2)CC1` the IC50 (Aspartyl aminopeptidase) was > 73.5 µM (not active), the IC50 (Aminopeptidase N) was 1.71 µM (active) and the IC50 (Procathepsin L) was > 59.6 µM (not active).
With `Cc1nn(-c2ccccc2)c2c1C(c1ccc(O)c(O)c1)N1C(=N2)C(Nc2ccccc2)=Nc2ccccc21` (stereo not given) the AC50 (Cytochrome P450 3A4) was 14.1 µM (inconclusive), the IC50 [2] was 4.68 µM (active) and the EC50 (Streptococcus) was 5.88 µM (active). For the same compound, the EC50 (Streptokinase A) was 1.53 µM (active) and the EC50 [3] was 0.772 µM (active).
In the case of `CCN1C(=O)c2cccc3cccc1c23`, the IC50 [4] is reported as > 50 µM (inactive), the IC50 [5] is reported as 33.9 µM (active) and the IC50 [6] is reported as 32 µM (active). The IC50 [7] was 20.5 µM (active).
With `O=C(N/N=C/c1c(F)c(F)c(F)c(F)c1F)c1cccc(S(=O)(=O)N2CCOCC2)c1` the IC50 [8] was > 100 µM (active).
